Test results reported in patent US12213963B2, “Topical formulation of disease-modifying antirheumatic drug (DMARDs) for the treatment of rheumatoid arthritis, melanoma, squamous cell carcinoma, atopic dermatitis, and psoriasis” (priority 2022, dated 2025).

Test: Solubility of leflunomide in oils, surfactants and co-surfactants
Type: physicochemical
Experimental: Solubility of leflunomide was investigated in various oils, surfactants and co-surfactants. The selected excipients showing good solubility were further screened using turbidimetric method to check the emulsification efficiency of the system. Water titration method was used to select combination of oil, surfactant and co surfactant which provided clear systems with water. Briefly, the drug was dissolved in the oil by vortexing. Surfactant and co-surfactants were added to the oil phase and further titrated with water to check the ease of emulsification. The globule size of these systems was determined. Capryol® 90 and Capmul® PG2L were selected as the oil component. The solubility of the drug was highest in these oils and adequate to achieve the required drug loading. […] Out of the various gelling agents screened, Carbopol® 974P was selected because it formed uniform gel with good texture and consistency.

## Cc1oncc1C(=O)Nc1ccc(C(F)(F)F)cc1 [leflunomide]
  drug solubility in co-surfactant PEG 400: higher drug solubility
  drug solubility in surfactants Tween 20 and Kolliphor RH 40: high drug solubility
Compared with other oils screened
  solubility of the drug in oils Capryol 90 and Capmul PG2L: highest
